System: skin
Assay: application on the skin against injuries caused by solar/UV radiation
Type: in vivo
Details: persists in the presence of sunscreens

## CC(C)c1cc2c(c(C(C)C)c1)[O][Cu]1([O]C2=O)[O]C(=O)c2cc(C(C)C)cc(C(C)C)c2[O]1 [copper (II) bis(3,5-diisopropylsalicylate)]
  intensity of the solar erythema: reduced
  number of degraded keratinocytes: reduced
